Measured values from patent US20090291857A1, “METHODS TO IDENTIFY INHIBITORS OF THE UNFOLDED PROTEIN RESPONSE” (THE BOARD OF TRUSTEES OF THE LELAND STANFORD JUNIOR …, priority 2006, published 2009).

Legend:
XBP-luciferase reporter = XBP-luciferase reporter assay under Tm or hypoxia; assay type: cell-based, human
Description: HT1080 cells stably expressing the XBP-luciferase construct were grown in 60 mm dishes to 60-70% confluency. Following hypoxia treatment, cells were washed twice with PBS, lysed in 400 μl 1× reporter lysis buffer (RLB) (Promega, Madison Wis.) for 30 min at 24° C. Lysates (100 μl) were mixed with an equal volume of luciferase substrate (Promega), and assayed using a luminometer. For 5×-UPRE-luciferase reporter assays, cells were co-transfected with the appropriate reporter plasmid and a control plasmid (pSV40-beta-gal) using Lipofectamine 2000 (Invitrogen, San Diego, Calif.). Twenty-four hours after transfection, fresh media was added, and cells were treated with Tm or shifted to hypoxia. After treatment, cells were lysed in 1× RLB and analyzed for luciferase activity as described above. Beta-galactosidase activity was determined using the beta-galactosidase enzyme assay system (Promega).
A. XBP-luciferase reporter construct. […] After 24 hours, luciferase activity was analyzed in an automated plate reader. For each cell line, values are expressed as the percent inhibition of the median for Tm/Tg-treated wells, corrected for background. […] Values are expressed as the fold increases over uninduced levels. […] Cells were harvested, lysed, and analyzed by immunoblotting with antisera specific for HIF-1α (top), XBP-1s (middle) or actin (bottom). […]

HT1080 fibrosarcoma = assay: Cell proliferation assay, HT1080; assay type: cell-based, human; conditions: same concentrations
Description: A. Effect of irestatin 9389 on PERK and ATF6 pathways. HT1080 cells were treated with vehicle alone (lanes 1-4) or 2.5 μM irestatin 9389 (lanes 5-8) and cultured under aerobic conditions for 18 hours (N) or shifted to hypoxia for the indicated times. Protein lysates were analyzed by Western blot analysis using antisera specific for ATF6 (top), CHOP/GADD153 (middle) or actin (bottom). Arrow indicates the cleaved, transcriptionally active form of ATF6. B. Cleavage of caspase-3 in irestatin-treated cells under hypoxia. HT1080 cells were cultured in normoxia (N) or under hypoxia for 36 hours (H 36) in absence or presence of irestatin 9389 (2.5 μM). Arrows indicate proteolytically cleaved caspase-3. C. Colony formation assay. HT1080 cells were treated as in B under normoxia (N) or hypoxia for 48 hours (H 48). Cells were harvested, counted, and allowed to grow under normal culture conditions for 11-12 days. Colonies were visualized with crystal violet staining. D. Quantification of clonogenic survival assay. Values represent the mean+/−SEM from at least 4 independent experiments. E. TUNEL staining of cells treated as in C. F. Quantification of TUNEL-positive cells. Values represent the mean+/−SEM from at least 3 experiments. […] Cells were harvested at the indicated times and counted by hemocytometer. Values represent the mean calculated from triplicate experiments +/−SEM. […]

Which results are given for `Cc1csc(NC(=O)CSc2nc3c(c(C(F)(F)F)c2C#N)CCC3)n1` [Compound 9389]?
activation of the XBP-luciferase reporter under hypoxia (XBP-luciferase reporter; 1 μM, hypoxia 24 or 48 hours): robustly inhibited this response; inhibition at 1 µM (XBP-luciferase reporter; Homo sapiens, Tm 24 hours, read-out: inhibition of Tm-mediated activation of the XBP-luciferase reporter): > 90%; growth rate of HT1080 cells under normal conditions (HT1080 fibrosarcoma): negligible effect
